Target: T1, Aiptasia non-canonical NPC2 XM_021052404 (Exaiptasia diaphana, UniProt A0A913XQG8)
T1 construct: expressed in HEK 293T, NPC2 - five-proline linker - crmCherry - 3xHA (C-terminal), lysate, anti-HA pull-down; native protein also precipitated from Aiptasia CC7
T1 sequence (A0A913XQG8 60-190): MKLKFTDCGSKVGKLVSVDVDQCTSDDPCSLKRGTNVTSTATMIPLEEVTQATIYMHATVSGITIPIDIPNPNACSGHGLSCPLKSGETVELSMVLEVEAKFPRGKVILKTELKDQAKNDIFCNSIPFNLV
Experiment: immunoprecipitation-lipidomics (mass spectrometry of co-eluted sterols)
Type: binding
Conditions: HEK 293T lysate mixed with Symbiodiniaceae SSB01 homogenate (sterol mixture), pH 7 or pH 5

## CC(C)CCC[C@@H](C)[C@H]1CC[C@H]2[C@@H]3CC=C4C[C@@H](O)CC[C@]4(C)[C@H]3CC[C@]12C [cholesterol]
  immunoprecipitation-lipidomics (mass spectrometry of co-eluted sterols): directly bound to cholesterol and various sterols the way other NPC2 proteins normally do

Source: article PMC6548501, “Sterol transfer by atypical cholesterol-binding NPC2 proteins in coral-algal symbiosis” (eLife, 2019)
